Consider 7 molecules from patent publication US5756536A, “Microbial transformation of taxol and cephalomannine” (Purdue Research Foundation, priority 1996, dated 1998).

Values after ≈ are worked out from the molar mass of the structure shown. Read-outs that look alike come from different tables or passages of the source.

One data set has as its system HT-29. As to the kind of experiment: In vitro antitumor cytotoxicity, MTT microculture assay, HT-29. The format is cell-based. The conditions noted are these: Homo sapiens. On the procedure:
(§1) The in vitro antitumor activity cytotoxicity was measured by a microculture assay using 3-(4,5-dimethylthiazol-2-yl)-2,5-diphenyl-tetrazolium bromide (MTT). This assay has an advantage over in vivo assay in that results are obtained within a week as opposed to several months. The assay was done in 96-well microtiter plates. The MTT assay is based on the transformation into a dark blue formazan product by dehydrogenase in the mitochondria of live tumor cells after exposure to drug for 6 days [M. C. Alley, D. A. Scudiero, A. Monks, M. L. Hursey, M. J. Czerwinski, D. L. Fine, B. J. Abbott, J. G. Mayo, R. H. Shoemaker and M. R. Boyd, Cancer Res., 48, 589, 1988.] Thus, only live cells are stained and can be measured at 570 nm. Antitumor cytotoxicity is reported as GI50, effect drug dose at which cell growth is retarded to 50% of control culture of tumor cells. The active compounds must have GI50 values that are less then 10^-4 M or 10 μg/ml.
(§2) Antitumor Cytotoxicity of Taxanes
(§3) Against Human Tumor Cell Lines
HT29: colon adenocarcinoma

A further data set relates to MCF-7. As to the kind of experiment: In vitro antitumor cytotoxicity, MTT microculture assay, MCF-7. The format is cell-based. The conditions noted are these: Homo sapiens, MCF7, 144 h. On the procedure: as §1, §2, §3
MCF7: breast adenocarcinoma
For orientation: Tetrazolium dyes change colour on reduction, which living cells bring about.

Another data set relates to A-549. As to the kind of experiment: In vitro antitumor cytotoxicity, MTT microculture assay, A-549. It counts as cell-based. The conditions noted are these: Homo sapiens, A549, 144 h. The method, then:
as §1, §2, §3

The conditions of data set [1]: cited from earlier work.
For data set [2], the system named is drug-refractory ovarian cancer. The conditions noted are these: in vivo; cited from earlier work.
Data set [3] has as its system tubulin. The conditions noted are these: cited from earlier work.
For data set [4], the system named is tubulin. As to the kind of experiment: FAT tubulin polymerization assay. The format is biochemical.
Setting [5] is: 144 h, HT-29 colon adenocarcinoma, drug exposure 6 days, MTT, 570 nm, read-out: GI50.
Setting [6] is: MCF-7 breast adenocarcinoma, drug exposure 6 days, MTT, 570 nm, read-out: GI50.
Setting [7] is: A-549 lung carcinoma, drug exposure 6 days, MTT, 570 nm, read-out: GI50.

In the case of `C/C=C(\C)C(=O)N[C@@H](c1ccccc1)[C@@H](O)C(=O)O[C@H]1C[C@@]2(O)[C@@H](OC(=O)c3ccccc3)[C@@H]3[C@]4(OC(C)=O)CO[C@@H]4C[C@H](O)[C@@]3(C)C(=O)[C@H](OC(C)=O)C(=C1C)C2(C)C` [Caphalomannine, cephalomannine], the GI50 worked out at 0.2 ng/mL (≈ 0.24 nM) with HT-29 (HT-29, 144 h); 0.8 ng/mL (≈ 0.962 nM) in the data set on MCF-7; 0.1 ng/mL (≈ 0.12 nM) with A-549.

Regarding `CC(=O)O[C@H]1C(=O)[C@@]2(C)[C@H]([C@H](OC(=O)c3ccccc3)[C@]3(O)C[C@H](OC(=O)[C@H](O)[C@@H](NC(=O)/C(C)=C/CO)c4ccccc4)C(C)=C1C3(C)C)[C@]1(OC(C)=O)CO[C@@H]1C[C@@H]2O` [L-745,596], the results for the GI50 with HT-29 (setting [5]), in the data set with MCF-7 (setting [6]) and with A-549 (setting [7]) were 20 ng/mL (≈ 23.6 nM), 50 ng/mL (≈ 59 nM) and 30 ng/mL (≈ 35.4 nM), respectively.

Regarding `CC(=O)O[C@H]1C(=O)[C@@]2(C)[C@H]([C@H](OC(=O)c3ccccc3)[C@]3(O)C[C@H](OC(=O)[C@H](O)[C@@H](NC(=O)c4ccc(O)cc4)c4ccccc4)C(C)=C1C3(C)C)[C@]1(OC(C)=O)CO[C@@H]1C[C@@H]2O` [L-760,006], the 50% growth inhibitory concentration (GI50) in the data set on HT-29 (setting [5]) is 0.08 ng/mL (≈ 0.092 nM); in the data set with MCF-7 (setting [6]) it was 0.01 ng/mL (≈ 0.0115 nM); in the data set with A-549 (setting [7]), 0.04 ng/mL (≈ 0.046 nM).

Consider `CC(=O)O[C@@]12CO[C@@H]1C[C@H](O)[C@@]1(C)C(=O)[C@H](OC(=O)CO)C3=C(C)[C@@H](OC(=O)[C@H](O)[C@@H](NC(=O)c4ccccc4)c4ccccc4)C[C@@](O)([C@@H](OC(=O)c4ccccc4)[C@H]21)C3(C)C` [L-760,007, 10-hydroxyacetyl taxol], for which the 50% growth inhibitory concentration (GI50) with HT-29 (setting [5]) is 0.01 ng/mL (≈ 0.0115 nM); in the data set on MCF-7 (setting [6]), 0.04 ng/mL (≈ 0.046 nM); with A-549 (setting [7]), under 0.01 ng/mL.

Regarding `CC(=O)O[C@H]1C(=O)[C@@]2(C)[C@H]([C@H](OC(=O)c3ccccc3)[C@]3(O)C[C@H](OC(=O)[C@H](O)[C@@H](NC(=O)c4ccccc4)c4ccccc4)C(C)=C1C3(C)C)[C@]1(OC(C)=O)CO[C@@H]1C[C@@H]2O` [Taxol], the GI50 amounted to 0.0001 ng/mL (≈ 0.000117 nM) with HT-29 (setting [5]), 0.002 ng/mL (≈ 0.00234 nM) in the data set on MCF-7 (setting [6]) and 0.0004 ng/mL (≈ 0.000468 nM) with A-549 (setting [7]). Also, the “toxic effects in phase 1 clinical trials” value in data set [1] is given as “did not show excessive toxic effects”. Besides, the “activity against drug-refractory ovarian cancer” value in data set [2] is recorded as “active agent against drug-refractory ovarian cancer”. The “effect on microtubule / tubulin polymer formation” value in the data set on tubulin [3] is reported as “promotes formation of microtubules”. Further, the “IC50 in the FAT tubulin polymerization assay” value in the data set with tubulin [4] is 17 ng/mL (≈ 19.9 nM).

Take `CC[C@]1(O)C[C@@H]2CN(CCc3c([nH]c4ccccc34)[C@@](C(=O)OC)(c3cc4c(cc3OC)N(C)[C@H]3[C@@](O)(C(=O)OC)[C@H](OC(C)=O)[C@]5(CC)C=CCN6CC[C@]43[C@@H]65)C2)C1` [vinblastine]: in the data set on tubulin [3], the “effect on microtubule / tubulin polymer formation” value was “prevent microtubule formation”.

Consider `CC[C@]1(O)C[C@H]2CN(CCc3c([nH]c4ccccc34)[C@@](C(=O)OC)(c3cc4c(cc3OC)N(C=O)[C@H]3[C@@](O)(C(=O)OC)[C@H](OC(C)=O)[C@]5(CC)C=CCN6CC[C@]43[C@@H]65)C2)C1` [vineristine], for which, in the data set with tubulin [3], the “effect on microtubule / tubulin polymer formation” value is recorded as “prevent microtubule formation”.

Usually GI50 stands for the concentration that inhibits growth by half.
